# Results taken from PubChem BioAssay AID1259411 (Chemical Carcinogenesis Research Information System (CCRIS), 2018).
# Active and inactive are the calls of the source. The rule behind the calls is not given here.
# Test system: rodent carcinogenicity bioassays, tumor incidence
# Assay: CCRIS carcinogenicity studies
# Outline: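 Archive of carcinogenicity, mutagenicity, tumor promotion and tumor inhibition results drawn from journals, NCI reports and other sources, expert-reviewed; covers 1985-2011 and is no longer updated.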
smiles,measurement,setting,value
CC1(C)[C@H](C(=O)O[C@H](C#N)c2cccc(Oc3ccccc3)c2)[C@@H]1C=C(Br)Br,carcinogen call,"Species: MOUSE, Strain/Sex: C57BL/FEMALE, Route: INTRAGASTRIC, Dose: 0, 1, 4, 8 MG/KG IN ARACHIS OIL 5 D/WK FOR 104 WK (STUDY DURATION: 120 WK), Dose: 0, 1, 4, 8 MG/KG IN ARACHIS OIL 5 D/WK FOR 104 WK (STUDY DURATION: 120 WK)",inactive; negative
same,carcinogen call,"Species: MOUSE, Strain/Sex: C57BL/MALE, Route: INTRAGASTRIC, Dose: 0, 1, 4, 8 MG/KG IN ARACHIS OIL 5 D/WK FOR 104 WK (STUDY DURATION: 120 WK), Dose: 0, 1, 4, 8 MG/KG IN ARACHIS OIL 5 D/WK FOR 104 WK (STUDY DURATION: 120 WK)",inactive; negative
same,carcinogen call,"Species: MOUSE, Strain/Sex: SWISS/MALE, FEMALE, Route: DERMAL, Dose: 0, 1, 2, 4 MG/KG BW IN 200 µL ACETONE 3/WK FOR 32 WK (STUDY DURATION: 32 WK), Dose: 0, 1, 2, 4 MG/KG BW IN 200 µL ACETONE 3/WK FOR 32 WK (STUDY DURATION: 32 WK)",inactive; negative
same,carcinogen call,"Species: Mouse, Strain/Sex: Crl:CD-1(ICR)BR/Female (50/Group), Route: Oral, Dose: 0, 10, 100, 1000, 2000 ppm in feed for 97 wk, Dose: 0, 10, 100, 1000, 2000 ppm in feed for 97 wk",inactive; negative
same,carcinogen call,"Species: Mouse, Strain/Sex: Crl:CD-1(ICR)BR/Male (50/Group), Route: Oral, Dose: 0, 10, 100, 1000, 2000 ppm in feed for 97 wk, Dose: 0, 10, 100, 1000, 2000 ppm in feed for 97 wk",inactive; negative
same,carcinogen call,"Species: RAT, Strain/Sex: BDVI/FEMALE, Route: INTRAGASTRIC, Dose: 0, 3, 6 MG/KG IN ARACHIS OIL 5 D/WK FOR 104 WK (STUDY DURATION: 120 WK), Dose: 0, 3, 6 MG/KG IN ARACHIS OIL 5 D/WK FOR 104 WK (STUDY DURATION: 120 WK), Tumor Site: Type of Lesion: THYROID: ADENOMA",active; positive
same,carcinogen call,"Species: RAT, Strain/Sex: BDVI/MALE, Route: INTRAGASTRIC, Dose: 0, 3, 6 MG/KG IN ARACHIS OIL 5 D/WK FOR 104 WK (STUDY DURATION: 120 WK), Dose: 0, 3, 6 MG/KG IN ARACHIS OIL 5 D/WK FOR 104 WK (STUDY DURATION: 120 WK), Tumor Site: Type of Lesion: THYROID: ADENOMA",active; positive
same,carcinogen call,"Species: Rat, Strain/Sex: Crl:CD(SD)BR/Female (50/Group), Route: Oral, Dose: 0, 25, 125, 500, 800 ppm in feed for 2 yr, Dose: 0, 25, 125, 500, 800 ppm in feed for 2 yr",inactive; negative
same,carcinogen call,"Species: Rat, Strain/Sex: Crl:CD(SD)BR/Male (50/Group), Route: Oral, Dose: 0, 25, 125, 500, 800 ppm in feed for 2 yr, Dose: 0, 25, 125, 500, 800 ppm in feed for 2 yr",inactive; negative
OCC(O)CCl (centres undefined),carcinogen call,"Species: Rat, Strain/Sex: Sprague-Dawley/Female, Route: Oral, Dose: 0, 25, 100, 400 ppm in drinking water for 2 yr (Study duration: 104 wk), Dose: 0, 25, 100, 400 ppm in drinking water for 2 yr (Study duration: 104 wk), Tumor Site: Type of Lesion: Kidney: Renal tubule adenoma or carcinoma",active; positive
same,carcinogen call,"Species: Rat, Strain/Sex: Sprague-Dawley/Male, Route: Oral, Dose: 0, 25, 100, 400 ppm in drinking water for 2 yr (Study duration: 100 wk), Dose: 0, 25, 100, 400 ppm in drinking water for 2 yr (Study duration: 100 wk), Tumor Site: Type of Lesion: Kidney: Renal tubule adenoma or carcinoma, Testes: Leydig cell tumor",active; positive
CC(=O)Nc1cc(NS(=O)(=O)C(F)(F)F)c(C)cc1C,carcinogen call,"Species: Mouse, Strain/Sex: Strain not specified by Department of Pesticide Regulation/Female (60/Group), Route: Oral, Dose: 0, 600, 1800, 6000 ppm of 93% mefluidide in diet for 18-19 mo, study duration 19 mo, Dose: 0, 600, 1800, 6000 ppm of 93% mefluidide in diet for 18-19 mo, study duration 19 mo",inactive; negative
same,carcinogen call,"Species: Mouse, Strain/Sex: Strain not specified by Department of Pesticide Regulation/Male (60/Group), Route: Oral, Dose: 0, 600, 1800, 6000 ppm of 93% mefluidide in diet for 18-19 mo, study duration 19 mo, Dose: 0, 600, 1800, 6000 ppm of 93% mefluidide in diet for 18-19 mo, study duration 19 mo",inactive; negative
O=Nc1cc2c3ccccc3ccc2c2ccccc12,carcinogen call,"Species: MOUSE, Strain/Sex: SWISS/FEMALE, Route: INTRAPERITONEAL, Dose: 0, 100 NMOL (TOTAL DOSE) 1/7, 2/7 AND 4/7 ADMINISTERED ON DAYS 1, 8 AND 15 OF LIFE RESPECTIVELY (STUDY DURATION: 32 WK), Tumor Site: Type of Lesion: LUNG: TUMOR",active; positive
same,carcinogen call,"Species: MOUSE, Strain/Sex: SWISS/MALE, Route: INTRAPERITONEAL, Dose: 0, 100 NMOL (TOTAL DOSE) 1/7, 2/7 AND 4/7 ADMINISTERED ON DAYS 1, 8 AND 15 OF LIFE RESPECTIVELY (STUDY DURATION: 32 WK), Tumor Site: Type of Lesion: LUNG: TUMOR, LIVER: TUMOR",active; positive
COC(=O)C(C)(C)Oc1ccc(-c2ccc(Cl)cc2)cc1,carcinogen call,"Species: RAT, Strain/Sex: F344/MALE, Route: ORAL, Dose: 0.1% IN DIET FOR 75 WK, Tumor Site: Type of Lesion: LIVER: HEPATOCELLULAR CARCINOMA",active; positive
COc1cc(C(C)(C)C)c(O)c(C(C)(C)C)c1,carcinogen call,"Species: HAMSTER, Strain/Sex: SYRIAN/MALE, Route: ORAL, Dose: 1% IN DIET FOR 24 WK (STUDY DURATION: 24 WK)",inactive; negative
c1ccc2c(c1)CCc1cc3c4c(ccc3cc1-2)CCCC4,carcinogen call,"Species: MOUSE, Strain/Sex: SWISS/FEMALE, Route: DERMAL, Dose: 0, 38 UG AS A 0.2% SOLUTION IN ACETONE APPLIED TO INTERSCAPULAR REGION 2/WK FOR 50 WK (STUDY DURATION: 60 WK), Tumor Site: Type of Lesion: SKIN: CARCINOMA",active; positive
CCc1nc(N)nc(N)c1-c1ccc(Cl)cc1,carcinogen call,"Species: MOUSE, Strain/Sex: B6C3F1/FEMALE, Route: ORAL, Dose: 0, 500, 1000 PPM IN DIET, Dose: 0, 500, 1000 PPM IN DIET",inactive; negative
same,carcinogen call,"Species: RAT, Strain/Sex: F344/FEMALE, Route: ORAL, Dose: 0, 200, 400 PPM IN DIET 5 D/WK, Dose: 0, 200, 400 PPM IN DIET 5 D/WK",inactive; negative
same,carcinogen call,"Species: RAT, Strain/Sex: F344/MALE, Route: ORAL, Dose: 0, 200, 400 PPM IN DIET 5 D/WK, Dose: 0, 200, 400 PPM IN DIET 5 D/WK",inactive; negative
O=C([O-])C(=O)[O-].O=C([O-])C(=O)[O-].[K+].[K+].[O]=[Ti+2],carcinogen call,"Species: MOUSE, Strain/Sex: SWISS/FEMALE, Route: ORAL, Dose: 0, 5 PPM IN DRINKING WATER FOR DURATION OF STUDY (STUDY DURATION: LIFE SPAN)",inactive; negative
same,carcinogen call,"Species: MOUSE, Strain/Sex: SWISS/MALE, Route: ORAL, Dose: 0, 5 PPM IN DRINKING WATER FOR DURATION OF STUDY (STUDY DURATION: LIFE SPAN)",inactive; negative
Nc1ccc(N)c(Cl)c1,carcinogen call,"Species: MOUSE, Strain/Sex: B6C3F1/FEMALE, Route: ORAL, Dose: 0, 0.3, 0.6% OF DIET, Dose: 0, 0.3, 0.6% OF DIET",inactive; negative
same,carcinogen call,"Species: MOUSE, Strain/Sex: B6C3F1/MALE, Route: ORAL, Dose: 0, 0.3, 0.6% OF DIET, Dose: 0, 0.3, 0.6% OF DIET",inactive; negative
same,carcinogen call,"Species: RAT, Strain/Sex: F344/FEMALE, Route: ORAL, Dose: 0, 0.15, 0.30% OF DIET, Dose: 0, 0.15, 0.30% OF DIET",inactive; negative
same,carcinogen call,"Species: RAT, Strain/Sex: F344/MALE, Route: ORAL, Dose: 0, 0.15, 0.30% OF DIET, Dose: 0, 0.15, 0.30% OF DIET",inactive; negative
CCC(=O)N(O)c1ccc(/C=C/c2ccccc2)cc1,carcinogen call,"Species: RAT, Strain/Sex: STRAIN-CD/FEMALE, Route: INTRAPERITONEAL, Dose: 0, 10 UMOL/KG BW 2/WK FOR 6 WK (STUDY DURATION: 62 WK), Tumor Site: Type of Lesion: LIVER: NEOPLASTIC NODULE, MAMMARY GLAND: TUMOR, EAR DUCT: TUMOR, PITUITARY GLAND: CARCINOMA, Tumor Site: Type of Lesion: LIVER: NEOPLASTIC NODULE, MAMMARY GLAND: TUMOR, EAR DUCT: TUMOR, PITUITARY GLAND: CARCINOMA",active; positive
same,carcinogen call,"Species: RAT, Strain/Sex: STRAIN-CD/MALE, Route: INTRAPERITONEAL, Dose: 0, 10 UMOL/KG BW 2/WK FOR 6 WK (STUDY DURATION: 62 WK), Tumor Site: Type of Lesion: TESTICLE: MESOTHELIOMA, PANCREAS(ACINUS): ADENOMA, PANCREAS(ISLET CELL): CARCINOMA, EAR DUCT: ADENOMA, CARCINOMA, LIVER:, Tumor Site: Type of Lesion: TESTICLE: MESOTHELIOMA, PANCREAS(ACINUS): ADENOMA, PANCREAS(ISLET CELL): CARCINOMA, EAR DUCT: ADENOMA, CARCINOMA, LIVER:",active; positive
